Data published in US9376440B2, “Pyrrolobenzodiazepines as antiproliferative agents” (MEDIMMUNE LIMITED, priority 2012, dated 2016).
Like-named read-outs stand apart in the source and are kept apart here.

Legend:
[1] = test system: WI38; test: MTT cytotoxicity assay, non-tumour cell line WI38; type: cell-based; conditions: Homo sapiens, read-out: IC50 (nM) WI38
Method: (§1) The cytotoxicity potential of the compounds of the invention 16c-h was compared with the comparative compounds 16a, 16b and GWL-78 in a number of tumour cell lines and the non-cancer cell line WI38 after 96 hours exposure using the MTT (3-(4,5-Dimethylthiazol-2-yl)-2,5-diphenyltetrazolium bromide) colorimetric assay, as described below.
(§2) A panel of several types of human cancer cell lines including epidermoid (A431), lung (A549), ovarian (A2780) and breast (MCF7 and MDAMB-231), as well as the non-tumour cell line WI38, were used to determine the cytotoxicity of the compounds. The cells were grown in normal conditions at 37° C. under a 5% CO2 humidified atmosphere, either in Dulbecco's Modified Eagle Medium or Modified Eagle Medium (depending on the cell line), supplemented with 10% fetal bovine serum (Biosera, UK), 1% L-glutamine, 1% non-essential amino acids and 0.05% hydrocortisone (Gibco, Invitrogen, USA). Cells were then seeded into 96-well plates in a total volume of 160 μl, and allowed to reach a 30-40% degree of confluence before starting the experiment. The ligands were dissolved in sterilized ultrapure water at a maximum concentration of 100 μM, and serial decimal dilutions prepared. These were added to the cells in a volume of 40 μl. After 96 hours of continuous exposure to each ligand, the cytotoxicity was determined by the MTT (3-(4,5-Dimethylthiazol-2-yl)-2,5-diphenyltetrazolium bromide) (Lancaster Synthesis Ltd, UK) colorimetric assay (Skehan P, S. R., et al., Journal of the National Cancer Institute 1990, 82, 1107). Absorbance was quantified by spectrophotometry at A=570 nm (ELx808, Bio-Tek Instruments, Inc., USA). IC50 values were calculated by a dose-response analysis using the Origin 6.0™ software.

[2] = test system: Mia Paca 2; test: MTT cytotoxicity assay, Mia Paca 2; type: cell-based; conditions: Homo sapiens, read-out: IC50 (nM) Mia Paca 2
Method: as §1, §2

[3] = MTD (maximum tolerated dose) study, intraperitoneal dosing; type: in vivo, mouse; conditions: for weight loss: Swiss-Webster mice, IP, 400 μg/Kg/day
Method: Initially a small scale study was carried out to determine the MTD (maximum tolerated dose) in Swiss-Webster mice using intraperitoneal dosing (IP). […] As 16f provided a marginally better toxicity profile in the MTD study, it was decided to carry out more extensive in vivo tumour xenograft studies on this molecule.

[4] = test system: A549 (lung); test: MTT cytotoxicity assay, A549; type: cell-based; conditions: Homo sapiens, read-out: IC50 (nM) A549
Method: as §1, §2

[5] = test system: A431 (epidermoid); test: MTT cytotoxicity assay, A431; type: cell-based; conditions: Homo sapiens, read-out: IC50 (nM) A431
Method: as §1, §2

[6] = test system: primary CLL cells; test: Annexin V/propidium iodide flow cytometry assay in primary CLL cells; type: cell-based; conditions: CLL cell
Method: The cytotoxicity potential of the compounds of the invention 16c-h was also compared with the comparative compounds 16a, 16b and GWL-78 in a primary CLL cell lines using the Annexin V assay (van Engeland, M, et al., Cytometry 1998, 31, 1-9), as described below.
Freshly isolated peripheral blood CLL cells (1×10^8 mL^−1) were cultured in RPMI medium (Invitrogen, Paisley, U.K.) supplemented with 100 U/mL penicillin, […] streptomycin, and 10% fetal calf serum. The cells were incubated at 37° C. in a humidified 5% CO2 atmosphere in the presence of each compound. All compounds were dissolved in DMSO and were evaluated in serial dilutions against the primary CLL cells. In addition, control cultures were carried out to which no drug was added. The cytotoxic effects of the compounds were quantified using an annexin V/propidium iodide flow cytometry assay (Bender Medsystems, Vienna, Austria). All assays were performed in duplicate, and LD50 values were calculated from sigmoidal dose-response curves using the Prism 6.0 software (Graphpad Software Inc., San Diego, Calif.). The sigmoidal dose-response curves were derived by plotting log [compound concentration] against the percentage apoptosis induced by that concentration. A wide range of concentrations were used to establish the biologically active range for each individual compound.

[7] = test system: A2780 (ovarian); test: MTT cytotoxicity assay, A2780; type: cell-based; conditions: Homo sapiens, read-out: IC50 (nM) A2780
Method: as §1, §2

[8] = test system: MDAMB-231 (breast); test: MTT cytotoxicity assay, MDAMB-231; type: cell-based; conditions: Homo sapiens, read-out: IC50 (nM) MDAMB-231
Method: as §1, §2

[9] = test system: MCF7 (breast); test: MTT cytotoxicity assay, MCF7; type: cell-based; conditions: Homo sapiens, read-out: IC50 (nM) MCF7
Method: as §1, §2

[10] = test system: DNA; conditions: cited from earlier work
[11] = test system: MDA MB 231 breast cancer xenograft; test: ER-negative MDA MB 231 breast cancer xenograft study; type: in vivo, mouse; conditions: for in vivo antitumour activity compared to control mice: female MF1 nude mice
Method: In vivo studies of the activity of 16f were carried out in an ER-negative MDA MB 231 breast cancer xenograft in a mouse model. The human breast cancer cell line MDA-MB-231 (5×10^8 cells) was employed to establish xenografts in the flanks of female MF1 nude mice, 2-3 months old and weighing 20-25 g. Subsequent passaging was by the subcutaneous implantation of small tumour pieces (approx 1 mm^3) into the flank. When the tumours reached approx. 0.06 cm^3 (three weeks post implantation) they were divided into 3 groups of 4 mice. The drug treated groups were administered with an IV dose (in DMSO) of either 250 μg/Kg/day or 300 μg/Kg/day for 5 consecutive days followed by two drug free days for 3 weeks, followed by 2 consecutive days in week 4 at which point the dosage was stopped.

[12] = test system: NF-κB; test: Transcription Factor Activation Profiling Array Assay (Signosis), HeLa; type: cell-based; conditions: 10 nM, 4 hours
Method: (§3) 16f was evaluated in a commercial Transcription Factor Activation Profiling Array Assay™ (Signosis) using the HeLa cell line. In this assay the activities of 48 transcription factors could be monitored simultaneously using a collection of biotin-labeled DNA probes based on the consensus sequences of individual transcription factor DNA-binding sites. […] The activity of NF-κB was reduced by almost 50%.

[13] = test system: SMAD; test: as above; type: cell-based; conditions: 10 nM, 4 hours
Method: as §3

[14] = test system: EGR; test: as above; type: cell-based; conditions: 10 nM, 4 hours
Method: as §3

[15] = test system: NFAT; test: as above; type: cell-based; conditions: 10 nM, 4 hours
Method: as §3

[16] = test system: OCT-4; test: as above; type: cell-based; conditions: 10 nM, 4 hours
Method: as §3

[17] = test system: Mia Paca 2 pancreatic cancer xenograft; test: Mia Paca 2 pancreatic cancer xenograft in mouse model; type: in vivo
Method: (§4) An in vivo study of 16f was carried out in a pancreatic cancer xenograft mouse model, in a similar manner to the above. The drug (16f) treated group was administered an IV dose of 300 μg/Kg/day for 5 consecutive days followed by 2 drug free days, and the cycle was continued for 3 weeks.

[18] = test system: phosphorylated-p65; test: Western Blotting in CLL cells, surrogate for NF-κB activity; type: cell-based; conditions: 24 hours incubation
Excerpt: (§5) Based on the hypothesis that 16f may down-regulate the expression of NF-κB-dependent genes (e.g., IκB, BCL2, BCLXL) by binding to the cognate DNA sequence of NF-κB, thereby blocking interaction of the transcription factor protein and inhibiting transcription of a number of genes, it was decided to explore this possibility in CLL cells in which NF-κB signaling is known to be active and closely correlates with the initiation and progression of malignancy.

[19] = test system: phosphorylated IκBα; test: as above; type: cell-based; conditions: 24 hours incubation, concentrations down to 0.1 nM
Excerpt: as §5

[20] = test system: NFκB; test: Immunohistochemical staining of xenograft tumour cross-sections; type: in vivo, mouse; conditions: treated vs controls
Method: as §4

COC(=O)c1cc(-c2ccc(NC(=O)c3cc(NC(=O)CCCOc4cc5c(cc4OC)C(=O)N4CCC[C@H]4C=N5)cn3C)cc2)cn1C [Compound 16e, (S)-methyl 4-(4-(4-(4-(7-methoxy-5-oxo-2,3,5,11a-tetrahydro-1H-pyrrolo[2,1-c][1,4]benzodiazepine-8-yloxy)butanamido)-1-methyl-1H-pyrrole-2-carboxamido)phenyl)-1-methyl-1H-pyrrole-2-carboxylate]
IC50 ([1]; WI-38, 96 h): 474 nM
IC50 ([2]; MIA PaCa-2, 96 h): 0.0013 nM
weight loss [3]: minor weight loss
IC50 ([4]; A549, 96 h): 0.056 nM
IC50 ([5]; A-431, 96 h): 0.0056 nM
IC50 [6]: 0.098 nM
IC50 ([7]; A2780, 96 h): 0.013 nM

COC(=O)c1ccc(NC(=O)c2ccc(NC(=O)CCCOc3cc4c(cc3OC)C(=O)N3CCC[C@H]3C=N4)n2C)n1C [GWL-78, reference compound]
IC50 ([1]; WI-38, 96 hours exposure, MTT, non-cancer cell line): 41.3 nM
IC50 ([2]; MIA PaCa-2, 96 hours exposure, MTT): 2.4 nM
IC50 ([8]; MDA-MB-231, 96 hours exposure, MTT): 0.12 nM
IC50 ([4]; A549, 96 hours exposure, MTT): 6.1 nM
IC50 ([5]; A-431, 96 hours exposure, MTT): 0.55 nM
IC50 ([9]; MCF7, 96 hours exposure, MTT): 0.32 nM
increase in DNA binding affinity compared to constituent PBD and dipyrrole components [10]: up to 50 fold
IC50 ([6]; primary CLL cells, annexin V/propidium iodide, apoptosis, read-out: IC50): 1.3 nM
IC50 ([7]; A2780, 96 hours exposure, MTT): 0.57 nM

COC(=O)c1cc(-c2ccc(NC(=O)c3nc(NC(=O)CCCOc4cc5c(cc4OC)C(=O)N4CCC[C@H]4C=N5)cn3C)cc2)cn1C [Compound 16f, (S)-methyl 4-(4-(4-(4-(7-methoxy-5-oxo-2,3,5,11a-tetrahydro-1H-pyrrolo[2,1-c][1,4]benzodiazepine-8-yloxy)butanamido)-1-methyl-1H-imidazole-2-carboxamido)phenyl)-1-methyl-1H-pyrrole-2-carboxylate]
IC50 ([1]; WI-38, 96 h): 129 nM
tumour re-growth after last IV dose ([11]; 300 μg/Kg dose level, up to 3 weeks after last dose): did not re-grow
in vivo antitumour activity compared to control mice ([11]; IV 250 μg/Kg/day): prominent in vivo antitumour activity
in vivo antitumour activity compared to control mice ([11]; IV 300 μg/Kg/day): prominent in vivo antitumour activity
signs of toxicity ([11]; IV 250 and 300 μg/Kg dose levels): without any signs of toxicity
IC50 ([2]; MIA PaCa-2, 96 h): 0.0021 nM
weight loss [3]: insignificant weight loss
weight loss or other signs of toxicity ([3]; repeat MTD experiment, 350 μg/Kg/day): did not show any weight loss or other signs of toxicity
IC50 ([4]; A549, 96 h): 0.034 nM
IC50 ([5]; A-431, 96 h): 0.018 nM
reduction of NF-κB activity ([12]; specific value): ~50%
down-regulation of NF-κB activity ([12]; top five, at least): at least 30%
down-regulation of SMAD activity [13]: at least 30%
down-regulation of EGR activity [14]: at least 30%
down-regulation of NFAT activity [15]: at least 30%
down-regulation of OCT-4 activity [16]: at least 30%
IC50 [6]: 0.17 nM
tumour growth after last administered dose ([17]; 300 μg/Kg, up to 21 days after last dose): no growth was observed
signs of toxicity ([17]; IV 300 μg/Kg dose level): without any signs of toxicity
antitumour activity compared to control mice ([17]; IV 300 μg/Kg/day, 5 days on/2 days off, 3 weeks): prominent antitumour activity
effect on phosphorylated-p65 [18]: only a marginal effect
suppression of phosphorylated IκBα [19]: significant suppression
IC50 ([7]; A2780, 96 h): 0.021 nM
immunohistochemical staining findings [20]: consistent with NFκB inhibition

COC(=O)c1cc(NC(=O)c2cc(-c3ccc(NC(=O)CCCOc4cc5c(cc4OC)C(=O)N4CCC[C@H]4C=N5)cc3)cn2C)cn1C [Compound 16c, (S)-methyl 4-(4-(4-(4-(7-methoxy-5-oxo-2,3,5,11a-tetrahydro-1H-pyrrolo[2,1-c][1,4]benzodiazepine-8-yloxy)butanamido)phenyl)-1-methyl-1H-pyrrole-2-carboxamido)-1-methyl-1H-pyrrole-2-carboxylate]
IC50 ([1]; WI-38, 96 h): 426 nM
IC50 ([2]; MIA PaCa-2, 96 h): 0.34 nM
IC50 ([8]; MDA-MB-231, 96 h): 2.7 nM
IC50 ([4]; A549, 96 h): 0.019 nM
IC50 ([5]; A-431, 96 h): 4.6 nM
IC50 ([9]; MCF7, 96 h): 1.7 nM
IC50 [6]: 2.1 nM
IC50 ([7]; A2780, 96 h): 0.96 nM
